Experiment: molar heat capacity at constant pressure
Conditions: 101.33 kPa, Crystal, Small (less than 1 g) adiabatic calorimetry

C[C@@H](O)[C@H](N)C(=O)O [L-threonine]
Conditions | molar heat capacity at constant pressure [J/K/mol]
145.26 K | 88.8
146.21 K | 89.13
147.15 K | 89.63
148.1 K | 90.13
149.05 K | 90.63
150 K | 90.96
150.93 K | 91.38
151.88 K | 91.87
152.83 K | 92.21
153.78 K | 92.79
154.71 K | 93.21
155.66 K | 93.7
156.61 K | 94.2
157.55 K | 94.54
158.5 K | 94.87
159.44 K | 95.37
160 K | 95.62
160.38 K | 95.7
161.33 K | 96.12
162.27 K | 96.7
163.21 K | 97.03
164.16 K | 97.53
165.1 K | 98.03
166.02 K | 98.36
166.96 K | 98.78
167.9 K | 99.11
168.84 K | 99.69
169.78 K | 100.02
170 K | 100.19
170.72 K | 100.44
171.66 K | 100.85
172.6 K | 101.27
173.54 K | 101.6
174.48 K | 102.1
175.42 K | 102.6
176.34 K | 103.02
177.28 K | 103.43
178.21 K | 103.76
179.15 K | 104.35
180 K | 104.6
180.08 K | 104.6
180.99 K | 104.93
181.93 K | 105.34
182.86 K | 105.84
183.79 K | 106.34
184.73 K | 106.67
185.66 K | 107.09
186.59 K | 107.51
187.52 K | 107.92
188.45 K | 108.25
189.38 K | 108.75
190 K | 109
190.32 K | 109.09
191.25 K | 109.5
192.18 K | 110
193.1 K | 110.25
194.03 K | 110.67
194.96 K | 111.08
195.86 K | 111.5
196.79 K | 111.83
197.72 K | 112.33
198.65 K | 112.66
199.57 K | 112.99
200 K | 113.33
200.62 K | 113.49
201.78 K | 114.07
202.93 K | 114.57
204.09 K | 115.07
205.25 K | 115.65
206.41 K | 116.15
207.57 K | 116.57
208.73 K | 117.07
209.9 K | 117.57
210 K | 117.57
211.06 K | 118.07
212.23 K | 118.65
213.35 K | 119.06
214.52 K | 119.56
215.69 K | 119.98
216.86 K | 120.48
218.03 K | 120.89
219.2 K | 121.47
220 K | 121.81
220.37 K | 121.97
221.54 K | 122.56
222.71 K | 122.97
223.89 K | 123.47
225.06 K | 123.97
226.24 K | 124.55
227.41 K | 125.05
228.59 K | 125.47
229.77 K | 125.96
230 K | 126.13
230.95 K | 126.38
232.1 K | 126.96
233.28 K | 127.54
234.46 K | 128.29
235.64 K | 128.62
236.82 K | 129.04
238 K | 129.62
239.18 K | 130.04
240 K | 130.37
240.37 K | 130.54
241.55 K | 131.04
242.74 K | 131.45
243.92 K | 132.03
245.11 K | 132.53
246.3 K | 132.95
247.49 K | 133.61
248.68 K | 134.03
249.87 K | 134.53
250 K | 134.69
251.05 K | 134.94
252.25 K | 135.36
253.44 K | 135.86
254.64 K | 136.69
255.83 K | 137.11
257.02 K | 137.94
258.22 K | 138.44
259.42 K | 138.77
260 K | 138.93
260.62 K | 139.27
261.82 K | 139.85
263.02 K | 140.35
264.22 K | 140.68
265.42 K | 141.43
266.63 K | 142.01
267.84 K | 142.43
269.05 K | 142.93
270 K | 143.26
270.25 K | 143.34
271.46 K | 144.09
272.67 K | 144.42
273.88 K | 145.17
275.09 K | 145.5
276.3 K | 145.92
277.52 K | 146.42
278.73 K | 146.83
279.95 K | 147.5
280 K | 147.58
281.17 K | 147.91
282.39 K | 148.5
283.61 K | 149
284.84 K | 149.49
286.06 K | 149.99
287.29 K | 150.57
288.48 K | 151.16
289.71 K | 151.74
290 K | 151.82
290.94 K | 152.24
292.17 K | 152.65
293.4 K | 153.57
294.63 K | 153.65
295.86 K | 154.4
297.1 K | 154.82
298.15 K | 155.31
298.33 K | 155.4
299.57 K | 155.98
300 K | 155.98
301.28 K | 156.31
303.43 K | 157.14
305.56 K | 157.97
307.69 K | 158.56
309.8 K | 159.55
310 K | 159.55
311.9 K | 160.3
313.99 K | 161.13
316.05 K | 161.88
318.12 K | 162.8
320 K | 163.46
320.16 K | 163.55
322.2 K | 164.21
324.22 K | 164.88
326.23 K | 165.71
328.22 K | 166.29
330 K | 166.87
330.18 K | 166.95
332.14 K | 167.54
333.96 K | 168.2
335.89 K | 168.95
337.81 K | 169.7
339.72 K | 170.36
340 K | 170.61
341.6 K | 171.28
343.43 K | 172.36
345.28 K | 172.77
347.12 K | 173.69
348.93 K | 174.44
350 K | 174.94
350.73 K | 175.19
352.45 K | 175.85
354.22 K | 176.68
355.96 K | 177.35
357.68 K | 177.93
359.39 K | 178.59
360 K | 178.76
361.08 K | 179.26
362.43 K | 179.59
364.01 K | 180.17
365.64 K | 180.84
367.26 K | 181.17
368.85 K | 181.84
370 K | 182.25
370.42 K | 182.5
371.97 K | 182.83

Source: the NIST ThermoML archive (doi:10.1016/j.jct.2017.09.022)
